Results from ChEMBL document CHEMBL1201862, “PubChem BioAssay data set” (2004).
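Test compounds were applied to cells in 96-well plates for 48 hours at 5 doses. GI50: concentration for 50% inhibition of growth.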 Activity calls are given as the source filed them. Cut-off read from the data, not from the text of the source: active = GI50 up to about 1.1 µM and inactive = higher.

Tests used:
Assay in all cases: NCI anticancer screen, dose series, 48 h
[1] = tested on: UACC-257
[2] = tested on: OVCAR-8
[3] = tested on: NCI/ADR-RES
[4] = tested on: SN12C
[5] = tested on: HT-29
[6] = tested on: IGROV-1
[7] = tested on: HCC 2998
[8] = tested on: TK-10
[9] = tested on: RPMI-8226
[10] = tested on: SF-268
[11] = tested on: SK-MEL-28
[12] = tested on: OVCAR-5
[13] = tested on: M14
[14] = tested on: SK-OV-3
[15] = tested on: MDA-N
[16] = tested on: CAKI-1
[17] = tested on: NCI-H460
[18] = tested on: UO-31
[19] = tested on: MDA-MB-231
[20] = tested on: SR

Q: With C/C(=N\NC(=S)NNC(=S)N(C)c1ccccc1)c1ccccn1 as the molecule, how does the GI50 [1] read?
A: 1.31 µM (inactive)

Q: What about the GI50 [2] of the same molecule?
A: 0.538 µM (active)

Q: What about the GI50 [3] of the same molecule?
A: 2.66 µM (inactive)

Q: What about the GI50 [4] of the same molecule?
A: 1.6 µM (inactive)

Q: What about the GI50 [5] of the same molecule?
A: 0.455 µM (active)

Q: What about the GI50 [6] of the same molecule?
A: 0.764 µM (active)

Q: What about the GI50 [7] of the same molecule?
A: 1.32 µM (inactive)

Q: What about the GI50 [8] of the same molecule?
A: 2.86 µM (inactive)

Q: What about the GI50 [9] of the same molecule?
A: 0.912 µM (active)

Q: What about the GI50 [10] of the same molecule?
A: 2.91 µM (inactive)

Q: And the GI50 [11]?
A: 4.25 µM (inactive)

Q: What about the GI50 [12] of the same molecule?
A: 24 µM (inactive)

Q: What about the GI50 [13] of the same molecule?
A: 0.454 µM (active)

Q: What about the GI50 [14] of the same molecule?
A: 1.48 µM (inactive)

Q: What about the GI50 [15] of the same molecule?
A: 4.06 µM (inactive)

Q: And the GI50 [16]?
A: 0.977 µM (active)

Q: And the GI50 [17]?
A: 0.681 µM (active)

Q: And the GI50 [18]?
A: 0.577 µM (active)

Q: What about the GI50 [19] of the same molecule?
A: 6.22 µM (inactive)

Q: Which results are given for COC(=O)c1c2c(cc3c1CC1(Cc4cc5c(cc4C1=O)CCC5)C3)CCC2 (stereo unspecified)?
A: GI50 [1]: 17.5 µM (inactive); GI50 [2]: 27.6 µM (inactive); GI50 [4]: > 100 µM (inactive); GI50 [5]: 37.4 µM (inactive); GI50 [6]: 34.3 µM (inactive); GI50 [7]: 63 µM (inactive); GI50 [8]: 22.8 µM (inactive); GI50 [9]: 6.79 µM (inactive); GI50 [10]: 85.9 µM (inactive); GI50 [11]: 63 µM (inactive); GI50 [12]: > 100 µM (inactive); GI50 [13]: 90.4 µM (inactive); GI50 [14]: 21.9 µM (inactive); GI50 [20]: > 10 µM (inactive); GI50 [15]: 20.4 µM (inactive); GI50 [16]: 21 µM (inactive); GI50 [17]: 86.1 µM (inactive); GI50 [18]: > 100 µM (inactive); GI50 [19]: > 100 µM (inactive)

Q: How did the GI50 [1] turn out when CC1=C(C(=O)N[C@@H](CC(C)C)C(=O)O)N2C(=O)[C@@H](NC(=O)C(N)c3ccccc3)[C@H]2SC1 (stereo partly specified) was run?
A: > 100 µM (inactive)

Q: What about the GI50 [2] of the same molecule?
A: > 100 µM (inactive)

Q: What about the GI50 [3] of the same molecule?
A: > 100 µM (inactive)

Q: What about the GI50 [4] of the same molecule?
A: > 100 µM (inactive)

Q: And the GI50 [6]?
A: > 100 µM (inactive)

Q: What about the GI50 [7] of the same molecule?
A: > 100 µM (inactive)

Q: And the GI50 [8]?
A: > 100 µM (inactive)

Q: What about the GI50 [9] of the same molecule?
A: > 100 µM (inactive)

Q: What about the GI50 [10] of the same molecule?
A: > 100 µM (inactive)

Q: And the GI50 [11]?
A: > 100 µM (inactive)

Q: And the GI50 [12]?
A: > 100 µM (inactive)

Q: And the GI50 [13]?
A: > 100 µM (inactive)

Q: And the GI50 [20]?
A: > 100 µM (inactive)

Q: What about the GI50 [15] of the same molecule?
A: > 100 µM (inactive)

Q: What about the GI50 [16] of the same molecule?
A: > 100 µM (inactive)

Q: What about the GI50 [17] of the same molecule?
A: > 100 µM (inactive)

Q: What about the GI50 [19] of the same molecule?
A: > 100 µM (inactive)

Q: How did the GI50 [1] turn out when O=c1[nH]c2ccc(C(F)(F)F)cc2nc1-c1ccccc1 was run?
A: > 100 µM (inactive)

Q: What about the GI50 [2] of the same molecule?
A: 52.4 µM (inactive)

Q: And the GI50 [3]?
A: > 100 µM (inactive)

Q: What about the GI50 [4] of the same molecule?
A: > 100 µM (inactive)

Q: What about the GI50 [5] of the same molecule?
A: > 100 µM (inactive)

Q: What about the GI50 [6] of the same molecule?
A: > 100 µM (inactive)

Q: And the GI50 [7]?
A: > 100 µM (inactive)

Q: What about the GI50 [8] of the same molecule?
A: > 100 µM (inactive)

Q: And the GI50 [9]?
A: > 100 µM (inactive)

Q: What about the GI50 [10] of the same molecule?
A: > 100 µM (inactive)

Q: And the GI50 [11]?
A: > 100 µM (inactive)

Q: What about the GI50 [12] of the same molecule?
A: > 100 µM (inactive)

Q: What about the GI50 [13] of the same molecule?
A: > 100 µM (inactive)

Q: And the GI50 [20]?
A: 88.3 µM (inactive)

Q: And the GI50 [15]?
A: > 100 µM (inactive)

Q: What about the GI50 [16] of the same molecule?
A: > 100 µM (inactive)

Q: What about the GI50 [17] of the same molecule?
A: > 100 µM (inactive)

Q: What about the GI50 [19] of the same molecule?
A: > 100 µM (inactive)

Q: How did the GI50 [1] turn out when S=C(S)NCCCn1ccnc1 was run?
A: > 100 µM (inactive)

Q: And the GI50 [2]?
A: > 100 µM (inactive)

Q: And the GI50 [3]?
A: > 100 µM (inactive)

Q: And the GI50 [4]?
A: > 100 µM (inactive)

Q: And the GI50 [5]?
A: > 100 µM (inactive)

Q: And the GI50 [6]?
A: > 100 µM (inactive)

Q: What about the GI50 [8] of the same molecule?
A: > 100 µM (inactive)

Q: And the GI50 [9]?
A: > 100 µM (inactive)

Q: And the GI50 [10]?
A: > 100 µM (inactive)

Q: What about the GI50 [11] of the same molecule?
A: > 100 µM (inactive)

Q: And the GI50 [12]?
A: > 100 µM (inactive)

Q: What about the GI50 [13] of the same molecule?
A: > 100 µM (inactive)

Q: And the GI50 [14]?
A: > 100 µM (inactive)

Q: What about the GI50 [20] of the same molecule?
A: > 100 µM (inactive)

Q: What about the GI50 [15] of the same molecule?
A: > 100 µM (inactive)

Q: And the GI50 [16]?
A: > 100 µM (inactive)

Q: What about the GI50 [17] of the same molecule?
A: > 100 µM (inactive)

Q: What about the GI50 [18] of the same molecule?
A: > 100 µM (inactive)

Q: And the GI50 [19]?
A: > 100 µM (inactive)

Q: What does the source list for O=C(c1ccccc1)c1ccc2c(c1)nc1n2C(c2c(F)cccc2F)SC1 (stereo unspecified)?
A: GI50 [1]: 29.6 µM (inactive); GI50 [2]: 24.5 µM (inactive); GI50 [3]: 29.9 µM (inactive); GI50 [4]: 18.7 µM (inactive); GI50 [5]: 13 µM (inactive); GI50 [6]: 52.4 µM (inactive); GI50 [7]: 36.5 µM (inactive); GI50 [8]: 39.2 µM (inactive); GI50 [9]: 30.3 µM (inactive); GI50 [10]: 49.9 µM (inactive); GI50 [11]: 32.1 µM (inactive); GI50 [12]: 25.8 µM (inactive); GI50 [13]: 20.8 µM (inactive); GI50 [14]: 30.5 µM (inactive); GI50 [15]: 19.7 µM (inactive); GI50 [16]: 21.1 µM (inactive); GI50 [17]: 17.1 µM (inactive); GI50 [18]: 11.6 µM (inactive); GI50 [19]: 41.9 µM (inactive)

Q: What does the source list for CC(=O)SSC1(Cl)C(C)(C)C(Cl)(SSC(C)=O)C1(C)C (stereo unspecified)?
A: GI50 [1]: 41.3 µM (inactive); GI50 [2]: 39.4 µM (inactive); GI50 [3]: 40.2 µM (inactive); GI50 [4]: 77.8 µM (inactive); GI50 [5]: 49.4 µM (inactive); GI50 [6]: 51.2 µM (inactive); GI50 [8]: 75.2 µM (inactive); GI50 [10]: 43.6 µM (inactive); GI50 [11]: > 100 µM (inactive); GI50 [12]: > 100 µM (inactive); GI50 [13]: 84.1 µM (inactive); GI50 [14]: > 100 µM (inactive); GI50 [15]: 65 µM (inactive); GI50 [16]: > 100 µM (inactive); GI50 [17]: 28.5 µM (inactive); GI50 [18]: 94.8 µM (inactive); GI50 [19]: > 100 µM (inactive)

Q: With CN(C)CCNC(=O)c1cccc(NC(=O)c2ccccc2)c1[N+](=O)[O-] as the molecule, how does the GI50 [1] read?
A: > 100 µM (inactive)

Q: What about the GI50 [2] of the same molecule?
A: > 100 µM (inactive)

Q: And the GI50 [3]?
A: > 100 µM (inactive)

Q: What about the GI50 [4] of the same molecule?
A: > 100 µM (inactive)

Q: What about the GI50 [5] of the same molecule?
A: 25.5 µM (inactive)

Q: And the GI50 [6]?
A: > 100 µM (inactive)

Q: What about the GI50 [7] of the same molecule?
A: > 100 µM (inactive)

Q: What about the GI50 [8] of the same molecule?
A: > 100 µM (inactive)

Q: And the GI50 [10]?
A: > 100 µM (inactive)

Q: And the GI50 [11]?
A: > 100 µM (inactive)

Q: What about the GI50 [12] of the same molecule?
A: > 100 µM (inactive)

Q: What about the GI50 [13] of the same molecule?
A: > 100 µM (inactive)

Q: What about the GI50 [14] of the same molecule?
A: > 100 µM (inactive)

Q: And the GI50 [15]?
A: > 100 µM (inactive)

Q: And the GI50 [16]?
A: > 100 µM (inactive)

Q: What about the GI50 [17] of the same molecule?
A: 93.5 µM (inactive)

Q: What about the GI50 [18] of the same molecule?
A: > 100 µM (inactive)

Q: And the GI50 [19]?
A: > 100 µM (inactive)
